Where “and” joins values, the source holds several entries; their conditions need not be identical. Identical values can stand only once.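 Growth conditions: 96-well plates. Treatment: test compound, 48 hours, 5 concentrations. Analysis: linear interpolation between bracketing concentrations; unreached endpoints set to highest concentration. Abbreviation: GI50, concentration required for 50% inhibition of growth.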 Calls of active or inactive are those of the source. Cut-off read from the data, not from the text of the source: active = GI50 up to about 1.1 µM and inactive = higher.

Consider eleven compounds from ChEMBL document CHEMBL1201862, “PubChem BioAssay data set” (2004).

Among the test systems are 786-0; SK-MEL-5; BT-549; NCI-H226; COLO 205; A498; MDA-MB-435; HT-29; Hs-578T; HOP-62; SF-539; MOLT-4; SN12C; LOX IMVI; SF-295; Malme-3M; HCT-116; NCI-H460; SNB-75.
Common to all, as to assay: NCI tumour cell line growth inhibition, 48 h

For the compound `CC1(C)OCC(C2OC(On3nnc4ccc(Cl)cc43)C3OC(C)(C)OC23)O1` (centres undefined), the GI50 in the test with 786-0 was > 100 µM (inactive); in the test with SK-MEL-5, > 100 µM (inactive); with BT-549, > 100 µM (inactive); with NCI-H226, 66.1 µM (inactive); in the test on COLO 205, > 100 µM (inactive); in the test on A498 it was 11.7 µM (inactive). Also, the GI50 in the test on MDA-MB-435, in the test with HT-29, in the test with Hs-578T, with HOP-62, in the test with SF-539 and in the test with MOLT-4 was > 100 µM (inactive) each time. The GI50 with SN12C, in the test on LOX IMVI, in the test on SF-295, with Malme-3M, with HCT-116 and with NCI-H460 was > 100 µM (inactive) each time. For the same compound, in the test with SNB-75, the GI50 was 98.9 µM (inactive).

In the case of `O=C(CC(=O)N(C(=O)/C=C\c1ccccc1)c1ccc(Cl)cc1)N1N=C(c2ccccc2)C(/N=N/c2cccc([N+](=O)[O-])c2)C1=O` (centres undefined), the GI50 in the test on 786-0 is 3.35 µM (inactive); in the test on BT-549 it was 12.3 µM (inactive); with NCI-H226 it was 13.2 µM (inactive); with COLO 205, 3.45 µM (inactive); with A498, 6.03 µM (inactive); with MDA-MB-435 it was 9.82 µM (inactive). For the same compound, the GI50 in the test with HT-29 was 2.42 µM (inactive); in the test with Hs-578T, 18.4 µM (inactive); in the test with HOP-62, 11.9 µM (inactive); in the test on SF-539, 6.07 µM (inactive); in the test on MOLT-4, 2.56 µM (inactive); in the test on SN12C, 1.29 µM (inactive). Besides, the GI50 in the test with LOX IMVI was 2.98 µM (inactive); with SF-295 it was 5.25 µM (inactive); in the test with Malme-3M, 11.3 µM (inactive); with HCT-116, 3.37 µM (inactive); with NCI-H460, 3.63 µM (inactive); in the test on SNB-75, 11.9 µM (inactive).

On to `CCc1c(CNC2=NCCN2)c(CC)c(CNC2=NCCN2)c(CC)c1CNC1=NCCN1`, for which the GI50 in the test with 786-0, in the test with SK-MEL-5, with BT-549, in the test on NCI-H226, in the test on COLO 205 and in the test on A498 was > 100 µM (inactive) in each case. Further, the GI50 in the test with MDA-MB-435, in the test on HT-29, in the test on Hs-578T, with HOP-62, with SF-539 and with MOLT-4 was > 100 µM (inactive) throughout. The GI50 with SN12C, in the test with SF-295, in the test with Malme-3M, in the test with HCT-116, with NCI-H460 and with SNB-75 was > 100 µM (inactive) each time.

With `CN(CCCCN1CCCC1)CCCN(C)C(=O)Cc1ccc(Cl)c(Cl)c1`, the GI50 was 12.9 µM (inactive) in the test with 786-0; 9.98 µM (inactive) in the test on SK-MEL-5; 16 µM (inactive) with BT-549; 26.9 µM (inactive) in the test on NCI-H226; 11.9 µM (inactive) with COLO 205; 15.8 µM (inactive) in the test on A498. Further, the GI50 in the test on MDA-MB-435 is 2.56 µM (inactive); with HT-29 it was 4.45 µM (inactive); with Hs-578T it was 20.6 µM (inactive); in the test with HOP-62, 13.9 µM (inactive); with SF-539, 7.38 µM (inactive); with MOLT-4 it was 8.91 µM (inactive). Also, the GI50 in the test on SN12C is 17.5 µM (inactive); in the test on LOX IMVI, 11.9 µM (inactive); in the test with SF-295 it was 19.3 µM (inactive); in the test on Malme-3M, 18.8 µM (inactive); in the test with HCT-116 it was 13.2 µM (inactive); in the test on NCI-H460 it was 16.3 µM (inactive). For the same compound, the GI50 with SNB-75 is 20.7 µM (inactive).

With `CC(C)(C)N1Cc2ccccc2/C(=C/Sc2ccccc2)C1=O`, the GI50 was 10.7 µM (inactive) with 786-0; 6.9 µM (inactive) in the test on SK-MEL-5; 6.53 µM (inactive) in the test with BT-549; 8.83 µM (inactive) with NCI-H226; 18.1 µM (inactive) in the test on COLO 205; 20 µM (inactive) in the test with A498. Moreover, the GI50 in the test with MDA-MB-435 was 7.38 µM (inactive); in the test with HT-29, 17 µM (inactive); in the test with Hs-578T, 16.7 µM (inactive); in the test with HOP-62, 17.3 µM (inactive); in the test on SF-539 it was 8.57 µM (inactive); in the test on MOLT-4 it was 3.21 µM (inactive). The GI50 in the test with SN12C was 8.17 µM (inactive); with LOX IMVI it was 2.64 µM (inactive); in the test with SF-295, 17.4 µM (inactive); in the test on Malme-3M, 13.3 µM (inactive); with HCT-116 it was 7.03 µM (inactive); in the test on NCI-H460, 14.9 µM (inactive). Moreover, the GI50 with SNB-75 was 16 µM (inactive).

For the compound `CC(=O)N1CCc2c([nH]c3ccc(Br)cc23)C1c1ccccc1` (centres undefined), the GI50 was 3.28 µM (inactive) in the test on 786-0; 2.4 µM (inactive) in the test on SK-MEL-5; 7.03 µM (inactive) in the test on BT-549; > 10 µM (inactive) in the test with NCI-H226; > 10 µM (inactive) in the test on COLO 205; > 10 µM (inactive) in the test on A498. Further, the GI50 with MDA-MB-435 is 2.69 µM (inactive); in the test on HT-29, 5.37 µM (inactive); in the test on Hs-578T, > 10 µM (inactive); in the test on HOP-62, 7.55 µM (inactive); in the test with SF-539, > 6.81 µM (inactive); in the test with MOLT-4, 0.697 µM (active). Also, the GI50 in the test with LOX IMVI is 2 µM (inactive); with SF-295, 2.4 µM (inactive); in the test on Malme-3M, > 10 µM (inactive); in the test with HCT-116 it was 1.11 µM (active); in the test on NCI-H460 it was 0.522 µM (active); with SNB-75, 7.96 µM (inactive).

As to `Cc1ccc2[nH]c3[nH]c(=O)[nH]c(=O)c3c2c1`, the GI50 with 786-0, in the test on SK-MEL-5, with BT-549, in the test with NCI-H226, with COLO 205 and in the test on A498 was > 100 µM (inactive) each time. The GI50 with MDA-MB-435, with HT-29, with Hs-578T, in the test on HOP-62, in the test on SF-539 and with MOLT-4 was > 100 µM (inactive) each time. Besides, the GI50 is > 100 µM (inactive) in the test with SN12C; > 100 µM (inactive) in the test on LOX IMVI; 58.3 µM (inactive) with SF-295; > 100 µM (inactive) with Malme-3M; > 100 µM (inactive) with HCT-116; > 100 µM (inactive) with SNB-75.

With `N=C(CSS(=O)(=O)O)NC1CC2CCC1C2` (centres undefined), the GI50 in the test with 786-0, in the test on SK-MEL-5, in the test with BT-549, in the test on NCI-H226, in the test on COLO 205 and in the test with A498 was > 100 µM (inactive) in each case. The GI50 in the test with MDA-MB-435 is 95.5 µM (inactive); in the test with Hs-578T it was > 100 µM (inactive); in the test on HOP-62, 95.7 µM (inactive); with SF-539, > 100 µM (inactive); in the test with MOLT-4 it was 78.2 µM (inactive); with SN12C, > 100 µM (inactive). Besides, the GI50 was 46 µM (inactive) with LOX IMVI; 76.7 µM (inactive) in the test on SF-295; > 100 µM (inactive) with Malme-3M; > 100 µM (inactive) with HCT-116; 43.1 µM (inactive) in the test with NCI-H460; > 100 µM (inactive) in the test on SNB-75.

With `Oc1ccc(SCc2cc(O)c(O)c(O)c2)cc1`, the GI50 was 37 µM (inactive) in the test on 786-0; 18 µM (inactive) in the test on SK-MEL-5; 25.6 µM (inactive) in the test on BT-549; 23.7 µM (inactive) in the test with NCI-H226; 18.7 µM (inactive) with COLO 205; 40.5 µM (inactive) in the test on A498. Besides, the GI50 in the test with MDA-MB-435 was 22.4 µM (inactive); in the test with HT-29, 23.5 µM (inactive); with Hs-578T, 77.8 µM (inactive); with HOP-62, 29 µM (inactive); in the test with SF-539, 82.8 µM (inactive); in the test with MOLT-4, 27 µM (inactive). Besides, the GI50 in the test on SN12C was 26.4 µM (inactive); in the test on LOX IMVI, 35.9 µM (inactive); in the test on SF-295 it was 15.8 µM (inactive); in the test on Malme-3M, 61.5 µM (inactive); with HCT-116, 17.1 µM (inactive); in the test with NCI-H460, 19.1 µM (inactive). Besides, in the test on SNB-75, the GI50 was 46.5 µM (inactive).

Turning to `COC(=O)c1ccc(NCC2=CC(=O)C=CC2=O)cc1`, the GI50 was 2.46 µM (inactive) in the test with 786-0; 18.5 µM (inactive) in the test on SK-MEL-5; 13.6 µM (inactive) in the test on BT-549; 17.9 µM (inactive) in the test with NCI-H226; 2.69 µM (inactive) in the test with COLO 205; 14.5 µM (inactive) in the test on A498. The GI50 in the test on MDA-MB-435 is 11.3 µM (inactive); in the test on HT-29, 17.9 µM (inactive); with Hs-578T, 21.4 µM (inactive); in the test with SF-539, 10.9 µM (inactive); in the test on MOLT-4, 3.05 µM (inactive); in the test on LOX IMVI it was 5 µM (inactive). For the same compound, the GI50 in the test on Malme-3M was 4.55 µM (inactive); in the test on HCT-116, 3.74 µM (inactive); in the test with SNB-75 it was 16.3 µM (inactive).

As to `COc1ccc2c(c1OC)CN1CCc3cc4c(cc3C1C2)OCO4` (centres undefined) [TETRAHYDROBERBERINE], the GI50 with 786-0 is > 100 µM (inactive); in the test on SK-MEL-5 it was > 100 µM (inactive); in the test on BT-549, > 100 µM (inactive); with NCI-H226, > 100 µM (inactive) and 68.7 µM (inactive); in the test with COLO 205, > 100 µM (inactive); in the test with A498, > 100 µM (inactive). The GI50 in the test with MDA-MB-435, in the test with Hs-578T, with HOP-62, in the test on SF-539, in the test with MOLT-4 and in the test with SN12C was > 100 µM (inactive) throughout. In addition, the GI50 in the test with LOX IMVI is > 100 µM (inactive); in the test on SF-295 it was > 100 µM (inactive); in the test on Malme-3M it was > 100 µM (inactive); in the test with HCT-116, > 100 µM (inactive); in the test with NCI-H460, 61 µM (inactive); with SNB-75, > 100 µM (inactive).
